Assay results taken from the NIST ThermoML archive (doi:10.1016/j.fluid.2004.12.009).

Experiments:
[1] = 298.15 K, Drop volume
[2] = xn = mol fraction of the nth substance listed; details: 298.15 K, Drop volume

Cc1ccccc1C [1,2-dimethylbenzene]
Details | surface tension liquid-gas [mN/m]
[1] | 29.27

Cc1cccc(C)c1 [1,3-dimethylbenzene]
Details | surface tension liquid-gas [mN/m]
[1] | 28.03

CCCOC(=O)CC [propyl propanoate]
Details | surface tension liquid-gas [mN/m]
[1] | 24.1

CCCOC(=O)CC [propyl propanoate] + Cc1ccc(C)cc1
[2]
Details | surface tension liquid-gas [mN/m]
x1 = 0.061 | 27.46
x1 = 0.0898 | 27.35
x1 = 0.1545 | 27.09
x1 = 0.2219 | 26.82
x1 = 0.2558 | 26.69
x1 = 0.3257 | 26.42
x1 = 0.388 | 26.18
x1 = 0.4204 | 26.07
x1 = 0.4851 | 25.83
x1 = 0.5211 | 25.71
x1 = 0.5809 | 25.5
x1 = 0.6209 | 25.38
x1 = 0.6846 | 25.17
x1 = 0.7187 | 25.07
x1 = 0.7976 | 24.82
x1 = 0.8562 | 24.62
x1 = 0.8779 | 24.56
x1 = 0.9544 | 24.28

CCCOC(=O)CC [propyl propanoate] + Cc1ccccc1C
[2]
Details | surface tension liquid-gas [mN/m]
x1 = 0.0587 | 28.88
x1 = 0.0915 | 28.66
x1 = 0.1548 | 28.27
x1 = 0.2236 | 27.85
x1 = 0.2531 | 27.68
x1 = 0.3216 | 27.3
x1 = 0.3862 | 26.95
x1 = 0.4212 | 26.77
x1 = 0.4836 | 26.45
x1 = 0.517 | 26.29
x1 = 0.5814 | 25.98
x1 = 0.6503 | 25.64
x1 = 0.6829 | 25.49
x1 = 0.7507 | 25.17
x1 = 0.7823 | 25.03
x1 = 0.8909 | 24.54
x1 = 0.9636 | 24.23

Cc1ccc(C)cc1 [1,4-dimethylbenzene]
Details | surface tension liquid-gas [mN/m]
[1] | 27.7

CCCOC(=O)CC [propyl propanoate] + Cc1cccc(C)c1
[2]
Details | surface tension liquid-gas [mN/m]
x1 = 0.0621 | 27.69
x1 = 0.0989 | 27.5
x1 = 0.1636 | 27.19
x1 = 0.2293 | 26.88
x1 = 0.2608 | 26.74
x1 = 0.3264 | 26.45
x1 = 0.4215 | 26.07
x1 = 0.6132 | 25.34
x1 = 0.7485 | 24.86
x1 = 0.7827 | 24.74
x1 = 0.8542 | 24.52
x1 = 0.8896 | 24.41
